Like-named read-outs stand apart in the source and are kept apart here.
Experiments:
[1] = Stability study of aqueous solutions of chlorhexidine digluconate (p-chloroaniline by colorimetric method, European Pharmacopoeia 6.0); assay type: physicochemical; settings: 20% aqueous solution; for p-chloroaniline (ppm, Colorimetry), 3 months: closed vial, protected from light
Description: In the U.S. Pharmacopoeia (First Supplement to the USP 33-NF 28 Reissue, USP Monographs: Chlorhexidine Gluconate Solution) it is described that the digluconate salt of chlorhexidine in aqueous solution should be preserved in tight containers, protected from light, and at controlled room temperature (i.e. about 25° C.). In this regard, the present inventors have observed that a 20% (w/v) aqueous solution of the chlorhexidine digluconate of the invention which is free of potential genotoxicity (i.e. having a content of p-chloroaniline lower than 40-50 ppm, with respect to the chlorhexidine base) can become moderately potentially genotoxic (i.e. showing a content of p-chloroaniline dramatically close to higher than 40-50 ppm) after 3 months of storage at 25° C., and highly potentially genotoxic (i.e. showing a content of p-chloroaniline much higher than 40-50 ppm) after 3 months of storage at 40° C. […] Conversely, when storing the aqueous solution of chlorhexidine digluconate of the invention at 15° C., the free-genotoxic stability (i.e. a content of p-chloroaniline lower than 40-50 ppm) is kept at low values for at least 3 months (See Example 12).
Two samples corresponding to a 20% (v/w) aqueous solution of chlorhexidine digluconate which was prepared from the chlorhexidine of Example 10, were stored in a closed vial, under different temperature conditions (i.e. 15° C., 25° C., and 40° C.) for 3 months in a closed chamber protected from light. The potentially free genotoxicity stability of the samples (i.e. the presence of p-chloroaniline) was measured by the colorimetric method described for measuring p-chloroaniline in chlorhexidine digluconate solution in European Pharmacopoeia 6.0 (page 1501).

[2] = assay type: physicochemical; settings: for p-chloroaniline (ppm, HPLC method 1): methanol:acetic acid 8:1 (v/v), 40° C.; for p-chloroaniline (ppm, HPLC method 1), Average: methanol:acetic acid 8:1, 40° C.
Description: HPLCs were acquired on a Waters Alliance 2695 LC system. Column: Kromasil C18, 5 μm, 4.6×250 mm. Flow rate: 1 mL/min. Detector: UV, 254 nm. Mobile phase A: (33:9.5:57.5; v/v/v) 1-octanesulfonic acid sodium salt solution/glacial acetic acid/methanol. The 1-octanesulfonic acid sodium salt solution was prepared dissolving 1.6 g of 1-octanesulfonic acid sodium salt in 330 ml of water and adding 95 ml of glacial acetic acid and 575 ml of methanol. Mobile phase B: methanol. Gradient: 100% A (0-20 min)-85% A (40-65 min)-100% A (70-80 min). Temperature: 30° C. Sample: 10 mg/mL in mobile phase A. Injection volume: 10 μL.
Limit of detection (LOD): 3 ppm of p-chloroaniline.
Two 100 mg aliquots of a sample of chlorhexidine free of potential genotoxicity (Replicates A and B), having a content of p-chloroaniline below 40-50 ppm, a content of each of compounds of Markush formula (IV) (i.e. impurities B-G) below 0.15%, and a total impurities content below 1.5%, as measured by HPLC method 1, were dissolved in 1 mL of a mixture of methanol and acetic acid 8:1 (v/v), and each solution was stored in 5 different closed glass vials at 40° C. These vials were opened after 1, 2, 4, 14, and 25 days of storage, respectively, and the content of p-chloroaniline was measured (HPLC method 1). A linear regression line was calculated from the data obtained in Table 1 (y=2170x-356, R^2=0.991, where “y” represents the measured content of p-chloro aniline in ppm units and “x” represents the degradation time in day units; See FIG. 1).
Three 100 mg aliquots of a sample of chlorhexidine (Replicates C, D and E), having a content of p-chloroaniline of less than 40-50 ppm, a content of each of compounds of Markush formula (IV) (i.e. impurities B-G) higher than 0.15%, and a total impurities content below 2.5-3.0%, as measured by HPLC method 1, were dissolved in 1 mL of a mixture of methanol and acetic acid 8:1 (v/v), and each solution was stored in 2 different closed glass vials at 40° C. These vials were opened after 12 and 19 days of storage, respectively, and the content of p-chloroaniline was measured (HPLC method 1).

[3] = 1 day of storage, sample with impurities B-G below 0.15%, 0.54% total impurities
[4] = 2 days of storage, sample with impurities B-G below 0.15%, 0.54% total impurities
[5] = 4 days of storage, sample with impurities B-G below 0.15%, 0.54% total impurities
[6] = 14 days of storage, sample with impurities B-G below 0.15%, 0.54% total impurities
[7] = 25 days of storage, sample with impurities B-G below 0.15%, 0.54% total impurities
[8] = 12 days of storage, sample with impurities B-G higher than 0.15%, 2.64% total impurities
[9] = 19 days of storage, sample with impurities B-G higher than 0.15%, 2.64% total impurities

N=C(NCCCCCCNC(=N)NC(=N)Nc1ccc(Cl)cc1)NC(=N)Nc1ccc(Cl)cc1.O=C(O)[C@H](O)[C@@H](O)[C@H](O)[C@H](O)CO.O=C(O)[C@H](O)[C@@H](O)[C@H](O)[C@H](O)CO [chlorhexidine digluconate]
p-chloroaniline, Increasing (%) ([1]; 3 months at 15° C.): 433%
p-chloroaniline, Increasing (%) ([1]; 3 months at 25° C.): 1533%
p-chloroaniline, Increasing (%) ([1]; 3 months at 40° C.): 4233%
p-chloroaniline (ppm, Colorimetry), Initial ([1]; sample to be stored at 15° C.): 3 ppm
p-chloroaniline (ppm, Colorimetry), Initial ([1]; sample to be stored at 25° C.): 3 ppm
p-chloroaniline (ppm, Colorimetry), Initial ([1]; sample to be stored at 40° C.): 3 ppm
p-chloroaniline (ppm, Colorimetry), 3 months ([1]; storage at 15° C.): 16 ppm
p-chloroaniline (ppm, Colorimetry), 3 months ([1]; storage at 25° C.): 49 ppm
p-chloroaniline (ppm, Colorimetry), 3 months ([1]; storage at 40° C.): 130 ppm

N=C(NCCCCCCNC(=N)NC(=N)Nc1ccc(Cl)cc1)NC(=N)Nc1ccc(Cl)cc1 [Replicate A]
p-chloroaniline (ppm, HPLC method 1) [2, 3]: 1,556 ppm
p-chloroaniline (ppm, HPLC method 1) [2, 4]: 3,357 ppm
p-chloroaniline (ppm, HPLC method 1) [2, 5]: 6,284 ppm
p-chloroaniline (ppm, HPLC method 1) [2, 6]: 33,753 ppm
p-chloroaniline (ppm, HPLC method 1) [2, 7]: 52,561 ppm

N=C(NCCCCCCNC(=N)NC(=N)Nc1ccc(Cl)cc1)NC(=N)Nc1ccc(Cl)cc1 [Replicate B]
p-chloroaniline (ppm, HPLC method 1) [2, 3]: 1,925 ppm
p-chloroaniline (ppm, HPLC method 1) [2, 4]: 3,609 ppm
p-chloroaniline (ppm, HPLC method 1) [2, 5]: 7,819 ppm
p-chloroaniline (ppm, HPLC method 1) [2, 6]: 33,575 ppm
p-chloroaniline (ppm, HPLC method 1) [2, 7]: 51,656 ppm

N=C(NCCCCCCNC(=N)NC(=N)Nc1ccc(Cl)cc1)NC(=N)Nc1ccc(Cl)cc1 [Replicate C]
p-chloroaniline (ppm, HPLC method 1) [2, 8]: 33657 ppm
p-chloroaniline (ppm, HPLC method 1) [2, 9]: 45243 ppm

N=C(NCCCCCCNC(=N)NC(=N)Nc1ccc(Cl)cc1)NC(=N)Nc1ccc(Cl)cc1 [Replicate E]
p-chloroaniline (ppm, HPLC method 1) [2, 8]: 33568 ppm
p-chloroaniline (ppm, HPLC method 1) [2, 9]: 47577 ppm

N=C(NCCCCCCNC(=N)NC(=N)Nc1ccc(Cl)cc1)NC(=N)Nc1ccc(Cl)cc1 [Replicate D]
p-chloroaniline (ppm, HPLC method 1) [2, 8]: 33153 ppm
p-chloroaniline (ppm, HPLC method 1) [2, 9]: 46753 ppm

[H]/N=C(\N/C(=N/[H])NCCCCCCNC(=N)NC(=N)Nc1ccc(Cl)cc1)Nc1ccc(Cl)cc1 [chlorhexidine, 1-[amino-[6-[amino-[amino-(4-chlorophenyl)aminomethylidene]aminomethylidene]amino-hexylimino]methyl]imino-N-(4-chlorophenyl)-methanediamine]
linear regression line, degradation rate towards p-chloroaniline [2]: 2170x-356
p-chloroaniline (ppm, HPLC method 1), Average ([2]; average of Replicates A and B, 1 day, 0.54% total impurities sample): 1,741 ppm
p-chloroaniline (ppm, HPLC method 1), Average ([2]; average of Replicates A and B, 2 days, 0.54% total impurities sample): 3,483 ppm
p-chloroaniline (ppm, HPLC method 1), Average ([2]; average of Replicates A and B, 4 days, 0.54% total impurities sample): 7,052 ppm
p-chloroaniline (ppm, HPLC method 1), Average ([2]; average of Replicates A and B, 14 days, 0.54% total impurities sample): 33,664 ppm
p-chloroaniline (ppm, HPLC method 1), Average ([2]; average of Replicates A and B, 25 days, 0.54% total impurities sample): 52,109 ppm
p-chloroaniline (ppm, HPLC method 1), Average ([2]; average of Replicates C, D and E, 12 days, 2.64% total impurities sample): 33459 ppm
p-chloroaniline (ppm, HPLC method 1), Average ([2]; average of Replicates C, D and E, 19 days, 2.64% total impurities sample): 46524 ppm

Source: patent US20130065965A1, “DI(4-CHLORO-PHENYLDIGUANIDO) DERIVATIVE WHICH IS FREE OF POTENTIAL GENOTOXICITY AND A PROCESS FOR REDUCING THE RESIDUAL AMOUNT OF P-CHLOROANILINE IN SAID DI(4-CHLORO-PHENYLDIGUANIDO) DERIVATIVE” (MEDICHEM S.A., priority 2009, published 2013)
